According to PubChem BioAssay AID2202554 (NIEHS Division of Translational Toxicology (DTT)):
Results filed as inconclusive are left out. Activity calls are given as the source filed them. How the calls were made is not given here.

These compounds were tested on S. typhimurium/E. coli reverse mutation, colony counts (assay: Bacterial reverse mutation test (aka Ames test) summary data;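 further: His-minus Salmonella and trp-minus E. coli WP2 uvrA pKM101 with or without liver S9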).
From the text: The Ames test uses bacteria cultures to determine whether a substance causes mutations. Because there is a significant overlap between substances that are mutagens and those that are carcinogens, a quick and inexpensive mutagenicity test is useful as an initial screening for possible carcinogens.
The Ames test relies on specific strains of S. typhimurium, namely: TA97, TA98, TA100, TA102, TA104, TA1535, TA1537, and TA1538. In addition to the S. typhimurium strains, the test may also use the E. coli strain WP2 uvrA pKM101.
Each of the bacterial strains has a mutation that prevents it from making an amino acid (a protein building block) required for normal cell growth. The S. typhimurium strains are unable to manufacture histidine; the E. coli strain cannot manufacture tryptophan. The tester strains will not be able to grow without amino acid supplementation, unless the mutated gene is changed back to the correct DNA sequence (reversion mutation). Being exposed to a mutagenic chemical increases the chance that the mutant gene will be restored to the correct sequence, which allows the bacteria to grow and form colonies. Each substance under study is tested in a variety of bacterial strains with different types of altered DNA sequences in order to provide a comprehensive assessment of the mutagenic potential of the substance.
Some non-mutagenic substances are converted to mutagenic substances when metabolized by the liver; in contrast, some substances that are mutagenic in their natural state are converted to non-mutagens by the liver. All substances are tested in their natural state, as well as in the presence of liver enzymes that can produce this metabolic conversion of the test substance. Extracts of rat, hamster, or mouse liver enzymes (S9 mix) are used for this purpose.
D. Preparing the Cultures
Multiple sets of cultures are prepared using a range of doses and different amounts of liver enzymes for each bacterial strain. Each culture is prepared in a test tube containing a suspension of one bacterial strain and either an S9 mix or plain buffer solution. Then the test substance is added. Negative control cultures are established using the same ingredients, but without the test substance. Positive control cultures are established using known mutagens active in particular bacterial strains and metabolic conditions (for example, with or without S9). Once prepared, each culture is incubated for 20 minutes at 37° C. Agar is then added to the cultures, and the contents of each tube are poured onto the surface of a Petri dish that was prepared with standard bacterial culture medium. The plates are then incubated, usually for two days.
Depending on the substance to be tested, the exposure and incubation processes may be modified. These variations include:
- Elimination of the 20-minute incubation period in a test tube prior to plating (this method is referred to as the standard plate incorporation method)
- Enzymatic reduction of azo and diazo substances (this process occurs in the intestine or liver of animals) using a chemical called flavin mononucleotide (FMN) or intestinal bacterial preparations from rats
- Testing in sealed chambers such as desiccators for volatile and gaseous chemicals.
To validate the test, a trained investigator compares the number of colonies on the chemical-treated plates to the number of colonies on the negative control plates. If the substance under test is mutagenic, the chemical-treated plates will have a much greater number of colonies than the negative control plates.
- A positive response is a reproducible, dose-related increase in mutant colonies in any single strain, with or without the addition of S9 metabolic enzymes. While there is no minimum percentage of increase required for a result to be considered positive, a twofold increase in mutant colonies in a treated plate is usually considered to be a positive (mutagenic) response.
[…]

Row | SMILES | outcome
1 | CCCCCCCCCCCCOCC1CO1 (centres undefined) | inactive; negative
2 | O=[N+]([O-])c1ccc(O)c([N+](=O)[O-])c1 | inactive; negative
3 | CCN(C=O)CC | inactive; negative
4 | O=C(NO)c1ccccc1 | active; positive
5 | COc1ccc(C(=O)c2ccccc2O)c(O)c1 | active; positive
6 | c1ccc(COCc2ccccc2)cc1 | inactive; negative
7 | [O]=[Cr](=[O])([OH])[O][Cr](=[O])(=[O])[OH] | active; positive
8 | O=CCCCC=O | active; positive
9 | Oc1cc2c(cc1O)[C@@H]1c3ccc(O)c(O)c3OC[C@]1(O)C2 | inactive; negative
10 | CN(C)CCCCl | active; positive
11 | Nc1ccc(-c2ccc(N)c(O)c2)cc1O | active; positive
12 | CCOP(=S)(OCC)SCSC(C)(C)C | inactive; negative
13 | CCCCCCCC(=O)Cl | active; positive
14 | Cc1ccc(OCC2CO2)cc1 (centres undefined) | active; positive
15 | CCOc1ccc(NC(C)=O)cc1N | active; positive
16 | CN(C)c1ccc(N=NS(=O)(=O)O)cc1 | active; positive
17 | CCC=CC#N | inactive; negative
18 | CCCN(CCC)S(=O)(=O)c1ccc(C(=O)O)cc1 | inactive; negative
19 | NCCCN | inactive; negative
20 | CCCSC(=O)Cl | active; positive
21 | Cc1ccc(N(C)C)cc1 | inactive; negative
22 | CCOC(C)OCC | active; positive

Row | SMILES | outcome
23 | O=P(O)(O)Oc1c[nH]c2ccccc12 | active; positive
24 | C=CCNC(=S)NCC=C | inactive; negative
25 | S=c1[nH]c2ccccc2[nH]1 | inactive; negative
26 | CC(C)(C)CC(C)(C)c1ccc(OCCOCC[N+](C)(C)Cc2ccccc2)cc1 | inactive; negative
27 | c1cc2c3c(c1)ccc1cccc(c13)C2 | active; positive
28 | C=C(C)[C@H]1CC=C(C)CC1 | inactive; negative
29 | CC(Cl)CN(C)C (centres undefined) | active; positive
30 | Cc1cccc([N+](=O)[O-])c1C | active; positive
31 | C=CCNCC=C | inactive; negative
32 | CCCCCCCC/C=C\CCCCCCCC(=O)OC | inactive; negative
33 | CCCCOCCCC | inactive; negative
34 | Clc1cc(Cl)c(Cl)c(Cl)c1 | inactive; negative
35 | Nc1nc(=S)c2[nH]cnc2[nH]1 | active; positive
36 | CC[N+](=O)[O-] | inactive; negative
37 | Nc1ncn([C@@H]2O[C@H](CO)[C@@H](O)[C@H]2O)c(=O)n1 | active; positive
38 | OCCCCl | active; positive
39 | O=C1Nc2ccc(Cl)cc2[C@@](C#CC2CC2)(C(F)(F)F)O1 | inactive; negative
40 | C=CC(C)=O | active; positive
41 | CCN(CC)CCNc1ccc(CO)c2sc3ccccc3c(=O)c12 | active; positive
42 | CC1CCCCC1CO (centres undefined) | inactive; negative
43 | Oc1ccccc1 | inactive; negative
44 | FC(F)(F)C(Cl)Br (centres undefined) | inactive; negative

Row | SMILES | outcome
45 | O=S(=O)(O)c1cc(N=Nc2c(O)ccc3ccccc23)ccc1-c1ccc(N=Nc2c(O)ccc3ccccc23)cc1S(=O)(=O)O | inactive; negative
46 | OCc1ccco1 | inactive; negative
47 | CC(=O)NS(=O)(=O)c1ccc(N)cc1 | inactive; negative
48 | Oc1cc(Cl)c(Cl)c(Cl)c1Cl | inactive; negative
49 | Cc1ccc(C)o1 | inactive; negative
50 | CC(C)(C)OOC(C)(C)CCC(C)(C)OOC(C)(C)C | inactive; negative
51 | CN(C)c1ccc(N=O)cc1 | active; positive
52 | OCCOc1ccccc1 | inactive; negative
53 | CNc1ccccc1N | active; positive
54 | Nc1ccccc1S(=O)(=O)O | active; weakly positive
55 | O=Cc1ccccc1 | inactive; negative
56 | C=CC(=O)NCCNC(=O)C=C | active; positive
57 | COc1ccc(N)cc1 | active; positive
58 | Nc1ccccc1C(=O)OC1CCCCC1 | inactive; negative
59 | Cc1ccc(C)c(N)c1 | active; positive
60 | CN(CCO)CCO | inactive; negative
61 | O=C1CCCCCN1 | inactive; negative
62 | C#C[C@]1(O)CC[C@H]2[C@@H]3CCc4cc(O)ccc4[C@H]3CC[C@@]21C | inactive; negative
63 | Clc1c(Cl)c(Cl)c2ccccc2c1Cl | inactive; negative
64 | NC(=O)N=NC(N)=O | active; positive
65 | NCCNCCNCCNCCN | active; positive
66 | Nc1ccn([C@@H]2CS[C@H](CO)O2)c(=O)n1 | inactive; negative

Row | SMILES | outcome
67 | C=C(C)C(=O)OC(C)C | inactive; negative
68 | CNN | inactive; negative
69 | Cc1ccc2ncccc2c1 | active; positive
70 | O=C1NC2NC(=O)NC2N1 (centres undefined) | inactive; negative
71 | CC(Cl)Cl | inactive; negative
72 | Nc1ccc(F)cc1F | active; positive
73 | Nc1nc2ccc([N+](=O)[O-])cc2s1 | active; positive
74 | C[N+](=O)[O-] | inactive; negative
75 | COP(=S)(OC)Oc1ccc(SC)c(C)c1 | active; weakly positive
76 | COC(=O)c1ccc(C(=O)OC)cc1 | inactive; negative
77 | CCN(CC)c1ccc(C(=C2C=CC(=[N+](CC)CC)C=C2)c2ccc(S(=O)(=O)O)cc2S(=O)(=O)[O-])cc1 | active; positive
78 | ClC(Cl)(Cl)c1ccccc1 | active; positive
79 | CC(CO)(CO)[N+](=O)[O-] | inactive; negative
80 | COP(=O)(OC)OC=C(Cl)Cl | active; positive
81 | COCCOC(C)=O | active; weakly positive
82 | CCCC(C)(COC(N)=O)COC(=O)NC(C)C (centres undefined) | inactive; negative
83 | COc1cc(OC)c(OC)cc1C=O | inactive; negative
84 | Cc1ccc(N=Nc2c(O)ccc3ccccc23)c([N+](=O)[O-])c1 | active; positive
85 | CC[C@]12CCCN3CCc4c(n(c5ccccc45)[C@@](O)(C(=O)OC)C1)[C@@H]32 | inactive; negative
86 | O=C(O)CN(CCN(CC(=O)O)CC(=O)O)CC(=O)O | inactive; negative
87 | CCOc1ccccc1C(N)=O | inactive; negative
88 | C1CN1c1nc(N2CC2)nc(N2CC2)n1 | active; positive

Row | SMILES | outcome
89 | CCCCCCCCCCCCCC(=O)[O-].CCCCCCCCCCCCCC(=O)[O-].[Zn+2] | inactive; negative
90 | Clc1ccc2c(c1)Oc1ccc(Cl)cc1O2 | inactive; negative
91 | Nc1ccc2cc(S(=O)(=O)O)c(N=Nc3ccc(-c4ccc(N=Nc5ccc(O)c(C(=O)O)c5)cc4)cc3)c(O)c2c1 | active; positive
92 | CC1(C)[C@@H]2CC[C@@]1(C)C(=O)C2 | inactive; negative
93 | [O]=[Mo](=[O])=[O] | inactive; negative
94 | O=[N+]([O-])c1cc(Cl)c(Cl)cc1Cl | active; positive
95 | CC1=C(/C=C/C(C)=C/C=C/C(C)=C\C=O)C(C)(C)CCC1 | active; weakly positive
96 | O=P(OCCCl)(OCCCl)OCCCl | inactive; negative
97 | COc1ccc(N)c(C)c1 | active; positive
98 | Nc1ccc(Cc2ccc(N)c(Cc3ccc(N)cc3)c2)cc1 | active; positive
99 | C=CC(C)(O)CCC=C(C)C (centres undefined) | inactive; negative
100 | CN(C)c1ccc(C(=N)c2ccc(N(C)C)cc2)cc1 | active; positive
101 | N#CCCCl | active; positive
102 | CC(=O)CC(N)=O | active; positive
103 | CCCCCCCCCCCCCCCCN | inactive; negative
104 | CC(C)(O)C#N | inactive; negative
105 | N#CSCSC#N | inactive; negative
106 | C=CC(=O)CC | active; positive
107 | Cc1ccc(N)c(N)c1 | active; positive
108 | ClC(Cl)=C(c1ccc(Cl)cc1)c1ccc(Cl)cc1 | inactive; negative
109 | Sc1ccccc1 | inactive; negative
